Test results taken from US11865126B2, “Method for treating anxiety disorders, headache disorders, and eating disorders with psilocybin” (priority 2019, dated 2024).

Tested on: healthy subjects
Assay: Social Value Orientation (SVO)
Assay type: in vivo, human
Description: In some embodiments, the Social Value Orientation (SVO) test is utilized to evaluate the safety and/or efficacy of psilocybin. The SVO Slider Measure has 6 primary items with 9 secondary (and optional) items. All of the items have the same general form. Each item is a resource allocation choice over a well-defined continuum of joint payoffs.
The following list of outcome measures are non-exhaustive. • a. The short-term change from Baseline (Day −1 [Visit 2]) to Day 7 (Visit 5) in cognitive measures of attention, spatial and working memory and executive function was measured by a composite score of the CANTAB Panel (Spatial Working Memory [SWM], Rapid Visual Information Processing [RVP], Paired Associates Learning [PAL]). • b. The short-term change from Baseline (Day −1 [Visit 2]) to Day 7 (Visit 5) in Social Cognition Panel scales (Pictorial Empathy Test [PET], Reading the Mind in the Eyes Test [RMET], Toronto Empathy Questionnaire [TEQ], Social Value Orientation [SVO], Scale of Social Responsibility [SSR]). • c. The change from Baseline (Day −1 [Visit 2]) to Day 28 (Visit 6) in cognitive measures of attention, spatial and working memory and executive function as measured by a composite score of the CANTAB Panel (SWM, RVP, PAL). • d. The long-term change from Baseline (Day −1 [Visit 2]) to Day 84 (Visit 7) in Social Cognition Panel scales (PET, RMET, TEQ, SVO, SSR). • e. Dose-related differences between cognitive effects of psilocybin at Baseline (Day −1 [Visit 2]), Day 7 (Visit 5) and Day 28 (Visit 6), as measured by a composite score of the CANTAB Panel (SWM, RVP, PAL). • f. Dose-related differences between psychological effects of psilocybin at Baseline (Day −1 [Visit 2]), Day 7 (Visit 5) and Day 84 (Visit 7), as measured by Social Cognition Panel scales (PET, RMET, TEQ, SVO, SSR). • g. Differences in cognitive effects of psilocybin between psilocybin-naïve and experienced subjects at Baseline (Day −1 [Visit 2]), Day 7 (Visit 5) and Day 28 (Visit 6), as measured by a composite score of the CANTAB Panel (SWM, RVP, PAL). • h. Differences in Positive and Negative Affect Schedule (PANAS) after study drug administration on Day 0 (Visit 3). • i. Differences between psilocybin and placebo in the Emotion Recognition Test (ERT), Intra-Extra Dimensional Set Shift (IED), One Touch Stockings (OTS), Verbal Fluency and Digit Span Forward at Day 7 (Visit 5). • j. A composite score of the CANTAB Panel, including the following tests: • i. Spatial Working Memory (SWM) (performed at Visit 2, Visit 5, and Visit 6). • ii. Rapid Visual Information Processing (RVP) (performed at Visit 2, Visit 5, and Visit 6). • iii. Paired Associates Learning (PAL) (performed at Visit 2, Visit 5, and Visit 6). • k. Cognitive Flexibility Panel • i. Emotion Recognition Task (ERT) (performed at Visit 5). • ii. Intra-Extra Dimensional Set Shift (IED) (performed at Visit 5). • iii. One Touch Stockings (OTS) (performed at Visit 5). • iv. Verbal Fluency (performed at Visit 5). • v. Digit Span Forward (performed at Visit 5). • l. Five Dimension Altered States of Consciousness questionnaire (5D-ASC) (performed at Visit 3). • m. PANAS (performed at Visit 2 and Visit 3). • n. NEO-Five Factor Inventory (NEO-FFI) (performed at Visit 2, Visit 5, and Visit 7). • o. Symptom Checklist-90 item (SCL-90) (performed at Visit 2, Visit 5, and Visit 7). • p. Life Changes Inventory (LCI): The LCI measures changes in attitudes and values after near-death experiences often used to evaluate personal transformation following spiritually oriented experiences and practices. (performed at Visit 5 and Visit 7). • q. Social Cognition Panel scales • i. Pictorial Empathy Test (PET) (performed at Visit 2, Visit 5, and Visit 7). • ii. Reading the Mind in the Eyes Test (RMET) (performed at Visit 2, Visit 5, and Visit 7). • iii. Social Value Orientation (SVO) (performed at Visit 2, Visit 5, and Visit 7). • iv. Toronto Empathy Questionnaire (TEQ) (performed at Visit 2, Visit 5, and Visit 7). • v. […]

SMILES: CN(C)CCc1c[nH]c2cccc(OP(=O)(O)O)c12 [psilocybin]
- SVO angle change from baseline, LS mean difference Psilocybin 10 mg - Placebo (Day 7, MMRM): 3.4
- SVO angle change from baseline, LS mean difference Psilocybin 25 mg - Placebo (Day 7, MMRM): 2.1
- SVO angle change from baseline, LS mean difference Psilocybin 25 mg-10 mg (Day 7, MMRM): −1.3
- SVO type change from baseline, LS mean difference Psilocybin 10 mg - Placebo (Day 7, MMRM): 0.1
- SVO type change from baseline, LS mean difference Psilocybin 25 mg - Placebo (Day 7, MMRM): 0.1
- SVO type change from baseline, LS mean difference Psilocybin 25 mg-10 mg (Day 7, MMRM): −0.0
- SVO angle change from baseline, LS mean difference Psilocybin 10 mg - Placebo (Day 84, MMRM): 3.4
- SVO angle change from baseline, LS mean difference Psilocybin 25 mg - Placebo (Day 84, MMRM): 2.4
- SVO angle change from baseline, LS mean difference Psilocybin 25 mg-10 mg (Day 84, MMRM): −1.0
- SVO type change from baseline, LS mean difference Psilocybin 10 mg - Placebo (Day 84, MMRM): 0.1
- SVO type change from baseline, LS mean difference Psilocybin 25 mg - Placebo (Day 84, MMRM): 0.1
- SVO type change from baseline, LS mean difference Psilocybin 25 mg-10 mg (Day 84, MMRM): −0.0
